Reference: patent US20100291543A1, “HOMOGENEOUS IN VITRO FEC ASSAYS AND COMPONENTS” (priority 2007, published 2010)
“And” between values parts separate entries of the source, which are not always exact repeats. Equal entries are not always repeated. Where two headings read alike, the source gives them in different places.

Experiments:
[1] = biological target: α and ω fragments of TEM-1 beta-lactamase (Escherichia coli, UniProt P62593, A182V/V82I); type: biochemical, E. coli
Description: Nitrocefin (Merck, Australia) is a colorimetric substrate of TEM-1 beta-lactamase that changes colour from yellow to red (OD492) following hydrolysis of the β-lactam ring. […] Assays were performed using a 96-well flat bottom cell-culture plate (TPP, Australia). Nitrocefin stock solutions of 200 or 600 μM were prepared in 50 mM NaH2PO4; 150 mM NaCl; 5% DMSO (Sigma, Australia) pH 7. For each 200 μl reaction, 100 μl of the nitrocefin stock was added to 100 μl of enzyme fragments (with or without Ni^2+) in 50 mM NaH2PO4 150 mM NaCl pH 7. Depending on the final signal required, the concentration of enzyme fragments used per well ranged from 40 nM to 200 nM and the final concentration of the Ni^2+ analyte from 100 μM or 200 μM. Assay components were mixed well by pipetting, incubated for 5 minutes at room temperature. Kinetics of the nitrocefin hydrolysis were read at 492 nm using a SpectraMax190 (Molecular Devices, USA).
In an attempt to improve the signal to noise ratio of forced α and ω fragments complementation, the effect of different buffer additives such as solvents, BSA, detergents, protein denaturants and salts were investigated. […] Assays were performed as described herein.
As a low concentration of solvent could partially denature the enzyme fragments, it was investigated whether a small amount of ethanol, isopropanol, methanol, DMSO and acetonitrile would reduce natural fragment complementation and increase the signal to noise ratio. The final concentrations of each solvent tested were 15%, 7.5%, 3.75%, 1.875%, […] and 0%. Kinetics of the complementation assays was read at 492 nm for 30 minutes. The signal/noise ratio was then calculated according to the maximum rate (mOD/min) from SoftmaxPro. […]
Detergent is widely used to reduce protein-protein interaction or ELISA background; using small amount might help preventing the natural fragment complementation by keeping two fragments apart then increased the signal/noise ratio. […] Reading data collecting time was 30 minutes. The signal/noise ratio was then calculated according to the maximum rate (mOD/min) from SoftmaxPro.
To test the effect of protein denaturants on enzyme fragment complementation, nitrocefin activity assays were performed using a matrix of fragment, substrate and NiSO4 concentrations in the presence of urea or guanidine hydrochloride. In preliminary assays, the complementation of 40 nM fragments was tested in concentrations of urea ranging from 2 M to 62.5 mM and in concentrations of GuHCl that ranged from 1M to 31.25 mM. The assay was prepared as follows: 40 nM of each fragment was added to a two-fold dilution series of urea [from 2 M urea 50 mM NaH2PO4 150 mM NaCl pH7 to 62.5 mM urea 50 mM NaH2PO4 150 mM NaCl pH7] or guanidine hydrochloride [from 1 M GuHCl 50 mM NaH2PO4 150 mM NaCl pH7 to 31.25 mM GuHCl 50 mM NaH2PO4 150 mM NaCl pH7] in duplicate. To the first set of wells, NiSO4 was added to a final concentration of 100 μM, whereas the second set contained no NiSO4. The plate was incubated for 5 minutes and the kinetics read at 492 nm using a SpectroMax reader.

[2] = biological target: human IgG (human); assay: surface plasmon resonance, same conditions as BLω-ProG
[3] = tested on: human IgG; assay: Surface plasmon resonance binding kinetics for human IgG; details: SPR
Excerpt: To confirm that the Protein G moiety of BLω-ProG was functional and suitable for testing in our HA format we assessed its binding kinetics for human IgG using surface plasmon resonance. […] A commercially available recombinant protein G, truncated to eliminate binding to human serum albumin, was included as a positive control.

[4] = tested on: rabbit hyper-immune serum (anti-HSV-1 peptide); type: biochemical; details: with BLα-HSV1 (5 nM), hyper-immune serum 1:100
[5] = type: physicochemical
Description: The pellet from a 250 ml overnight induction was lysed in 25 ml of [6 M GuHCl-100 mM NaH2PO4 10 mM Tris pH 8] followed by a 1-hour incubation at 4° C. with shaking at 100 rpm. To enhance lysis, the suspension was sonicated in an ice bath for 5 cycles of 30 seconds on/30 seconds off using a Branson 250 sonifier. After sonication, the lysate was centrifuged at 12,000×g for 30 min (4° C.) and then passed through a 0.2 μm filter to remove cellular debris.
Recombinant His-tagged proteins were purified using a 1 ml HisTrap HP column (Amersham cat. 17-5247-01) under the control of a DuoFlow chromatography system (BioRad cat. 760-0037). The HisTrap column was equilibrated with 10 column volumes (CV) of 8 M urea 100 mM NaH2PO4 10 mM Tris pH 7.5 at a flow rate of 1 ml/min. Cleared E. coli lysates were then loaded onto the column using a Model EP-1 Econopump (BioRad cat. 731-8142) at 0.5 ml/min. The column was washed with 10 CV of 8 M Urea 100 mM NaH2PO4 10 mM Tris pH 6.3. Bound protein was refolded over a 60 CV gradient from 8 M Urea 100 mM NaH2PO4 10 mM Tris 200 mM L-arginine 100 μM GSSG pH 7.5 to 100 mM NaH2PO4 10 mM Tris 200 mM L-arginine 100 μM GSSG pH 7.5 at 1 ml/min. Histidine-tagged proteins were eluted with 10 CV of 250 mM imidazole 50 mM NaH2PO4 150 mM NaCl pH 8, and analysed by PAGE, western blotting, gel filtration and mass spectroscopy.

[6] = FPLC gel filtration (aggregation) of purified fragments; type: physicochemical; details: Purification Strategy: Denaturing CRF Ni-NTA
Excerpt: In some cases, following affinity purification of the enzyme fragments, pooled eluates were subjected to size exclusion chromatography using a Superdex200GL column (Amersham cat. 17-5175-01) under the control of a DuoFlow chromatography system (BioRad cat. 760-0037). Gel filtration was used for either polishing of purified enzyme fragments (removal of contaminating proteins) or to determine the proportion of monomeric versus aggregated enzyme fragments after on-column refolding. The protocol was as follows: equilibration with 2 CV of 50 mM NaH2PO4 150 mM NaCl, pH7 at 0.6 ml/min; injection of 250-500 μl of sample at 0.6 ml/min; and isocratic flow of 1 CV of 50 mM NaH2PO4 150 mM NaCl, pH 7 at 0.6 ml/min. See FIG. 7 for exemplary results.

[7] = Purification Strategy: Denaturing CRF Ni-NTA

C[S+](C)[O-] [DMSO]
concentration at which optimal signal to noise ratio was achieved [1]: 15%

CC#N [acetonitrile]
concentration at which optimal signal to noise ratio was achieved ([1]; solvents and detergents): 3.75%

CCO [ethanol]
concentration at which optimal signal to noise ratio was achieved [1]: 3.75%
signal/noise ratio [1]: 7.1 and 8.4 and 8.5 and 5.4

c1c[nH]cn1 [imidazole]
concentration at which optimal signal to noise ratio was achieved ([1]; imidazole): 12.5 mM
signal/noise ratio ([1]; imidazole final concentration 6.25 mM): 5.2
signal/noise ratio ([1]; imidazole final concentration 12.5 mM): 5.3
signal/noise ratio ([1]; imidazole final concentration 25 mM): 3.7
signal/noise ratio ([1]; imidazole final concentration 50 mM): 2.1
signal/noise ratio ([1]; imidazole final concentration 100 mM): 0.8

CC(C)O [isoproponal, isopropanol]
concentration at which optimal signal to noise ratio was achieved ([1]; solvents and detergents): 3.75%

CO [methanol]
concentration at which optimal signal to noise ratio was achieved ([1]; solvents and detergents): 7.5%

NC(N)=O [urea]
concentration at which optimal signal to noise ratio was achieved ([1]; denaturant): 0.5 M

Triton-X100
concentration at which optimal signal to noise ratio was achieved [1]: 0.3%

Tween-20
concentration at which optimal signal to noise ratio was achieved ([1]; solvents and detergents): 0.15%

commercially available recombinant protein G, truncated to eliminate binding to human serum albumin
Kd [2]: 483 nM

B1: BLω-ProG: omega fragment fused via (G4S)3 linker to C2 domain of protein G, SEQ ID NO: 83 (protein)
chain: MHHHHHHGGGGSGSTYKLVINGKTLKGETTTEAVDAATAEKVFKQYANDNGVDGEWTYDDATKTFTVTETSGGGGSGGGGSGGGGSASELLTLASRQQLIDWMEADKVAGPLLRSALPAGWFIADKSGAGERGSRGIIAALGPDGKPSRIVVIYTTGSQATMDERDRQIAEIGASLIKHW
modifications: Protein G subunit omega reporter fragment displaying sequence of BLaProGconstruct
rate of association [3]: slower rate of association than the C2 domain
rate of dissociation [3]: slower rate of dissociation
Kd ([3]; read-out: dissociation constant (KD)): 81 nM
level of activity [4]: highest level of activity

B2: PB15: rearranged full-length (FL) construct of Beta-lactamase, SEQ ID NO: 21 (protein)
chain: MHMHHHHHHEERFPMMSTFKVLLCGAVLSRIDAGQEQLGRRIHYSQNDLVEYSPVTEKHLTDGMTVRELCSAAITMSDNTAANLLLTTIGGPKELTAFLHNMGDHVTRLDRWEPELNEAIPNDERDTTMPVAMATTLRKLLTGELLTLASRQQLIDWMEADKVAGPLLRSALPAGWFIADKSGAGERGSRGIIAALGPDGKPSRIVVIYTTGSQATMDERNRQIAEIGASLIKHWGSGSGHPETLVKVKDAEDQLGARVGYIELDLNSGKILESFRH
modifications: PB15
Purification (solubility) [5, 7]: >+++
Purification (solubility) ([5]; Purification Strategy: Native Ni-NTA): <+

B3: PB15.3: rearranged construct of Beta-lactamase with substitutions M182T, I208T and F230Y, SEQ ID NO: 22 (protein)
chain: MHMHHHHHHEERFPMMSTFKVLLCGAVLSRIDAGQEQLGRRIHYSQNDLVEYSPVTEKHLTDGMTVRELCSAAITMSDNTAANLLLTTIGGPKELTAFLHNMGDHVTRLDRWEPELNEAIPNDERDTTTPVAMATTLRKLLTGELLTLASRQQLTDWMEADKVAGPLLRSALPAGWYIADKSGAGERGSRGIIAALGPDGKPSRIVVIYTTGSQATMDERNRQIAEIGASLIKHWGSGSGHPETLVKVKDAEDQLGARVGYIELDLNSGKILESFRH
modifications: PB15.3 (M182T, I208T, F230Y)
Purification (solubility) [5, 7]: >+++

B4: PB11.2: alpha fragment construct containing substitutions V74T and M182T, SEQ ID NO: 6 (protein)
chain: MHPETLVKVKDAEDQLGARVGYIELDLNSGKILESFRPEERFPMMSTFKTLLCGAVLSRIDAGQEQLGRRIHYSQNDLVEYSPVTEKHLTDGMTVRELCSAAITMSDNTAANLLLTTIGGPKELTAFLHNMGDHVTRLDRWEPELNEAIPNDERDTTTPVAMATTLRKLLTGGGGGSHHHHHH
modifications: PB11.2 construct
FPLC (aggregation) [6]: <+
